One compound from publication PMC9600550, “The pH Robustness of Bacterial Sensing” (mBio, 2022) can be followed below.

In general, Kd refers to a measure of binding affinity in units of concentration.

The target in this assay is (UniProt A0A4D6XHN3). Description: ITC titration of E6B08_RS28125 with L-ornithine at different pH. The conditions noted are these: 25°C, pH 9.0, read-out: KD at pH optimum. The assay is classed as binding, P. putida 1290. On the technique in general: ITC needs no label: the signal is the heat of the interaction.
(UniProt A0A4D6XHN3), sequence (A0A4D6XHN3 24-265 limits assumed): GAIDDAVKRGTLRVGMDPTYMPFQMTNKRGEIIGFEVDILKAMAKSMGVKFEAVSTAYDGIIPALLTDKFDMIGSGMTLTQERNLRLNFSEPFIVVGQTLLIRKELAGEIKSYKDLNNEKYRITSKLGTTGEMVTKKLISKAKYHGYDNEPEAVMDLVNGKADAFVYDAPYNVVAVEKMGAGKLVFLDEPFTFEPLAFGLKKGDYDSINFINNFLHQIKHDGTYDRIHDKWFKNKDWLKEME

Protocol: To assess the pH dependence of ligand-binding, freshly purified proteins were dialyzed overnight into the buffers described in Table S1 and submitted to microcalorimetric titration.
Freshly purified proteins were dialyzed into the buffers specified in Table S1 and introduced into the sample cell of an VP-microcalorimeter (MicroCal). Proteins at 15 to 100 μM were titrated with 0.25 to 10 mM ligand solutions that were made up in dialysis buffer. For pH-active ligands, the pH of the ligand solutions was adjusted to that of the dialysis buffer by the addition of concentrated HCl or NaOH. Titrations of MBP and McpV-LBD were conducted at 15°C to favor endothermic contributions to binding heats, whereas the remaining titrations were carried out at 25°C. Raw titration data were integrated, corrected for ligand-dilution heats and normalized with the ligand concentrations. Resulting data were fitted with the “One Binding site model” of the MicroCal version of ORIGIN. Provided are the dissociation constants derived from one experiment and the error of curve-fitting.

`NCCC[C@H](N)C(=O)O` [L-ornithine]: the Kd was 660 nM.
